Measurements: US20250099634A1, “METHOD OF TREATING CANCER” (Novartis AG, priority 2023, published 2025)

Tests used:
[1] = NETTER-2 worst post-baseline biochemistry abnormalities based on CTC grades (Safety Set); assay type: in vivo, human; details: randomized treatment period; for Worst post-baseline abnormality: Alanine Aminotransferase (U/L)-Increase / Worst post-baseline abnormality: Albumin (g/L)-Decrease / Worst post-baseline abnormality: Alkaline Phosphatase (U/L)-Increase / Worst post-baseline abnormality: Aspartate Aminotransferase (U/L)-Increase / Worst post-baseline abnormality: Bilirubin (umol/L)-Increase / Worst post-baseline abnormality: Calcium Corrected (mmol/L)-Increase / Worst post-baseline abnormality: Creatinine (umol/L)-Increase / Worst post-baseline abnormality: Potassium (mmol/L)-Decrease / Worst post-baseline abnormality: Potassium (mmol/L)-Increase / Worst post-baseline abnormality: Sodium (mmol/L)-Decrease / Worst post-baseline abnormality: Sodium (mmol/L)-Increase: Safety Set
Source text: The laboratory assessments require that blood samples for hematology and blood chemistry, and a urine sample for urinalysis are taken. Laboratory assessments will be performed at the investigational site.
Blood tests performed 4 weeks after any treatment cannot serve as baseline values for the next treatment.
All laboratory data will be listed by treatment group, subject, and visit/time and if normal ranges are available abnormalities will be flagged. Summary statistics will be provided by treatment and visit/time. Shift tables using the low/normal/high/(low and high) classification will be used to compare baseline to the worst on-treatment value.
Grading of laboratory values will be assigned programmatically as per NCI Common Terminology Criteria for Adverse Events (CTCAE) version 5.0 or current version. The calculation of CTCAE grades will be based on the observed laboratory values only, clinical assessments will not be taken into account.
The following summaries will be generated separately for hematology, and biochemistry tests: • 1. Listing of all laboratory data with values flagged to show the corresponding CTCAE grades if applicable and the classifications relative to the laboratory normal ranges • 2. For laboratory tests where grades are defined by CTCAE, • 3. Worst post-baseline CTCAE grade (regardless of the baseline status). Each subject will be counted only once for the worst grade observed post-baseline. • 4. Shift tables using CTCAE grades to compare baseline to the worst on-treatment value • 5. For laboratory tests where grades are not defined by CTCAE, • 6. Shift tables using the low/normal/high/(low and high) classification to compare baseline to the worst on-treatment value.

[2] = NETTER-2 serious adverse events in the randomized treatment period (Safety Set)
Source text: All adverse events (AEs), whether or not spontaneously reported by the patient, will be recorded starting from the signing of the ICF until the end of the Treatment Phase. Safety summaries (tables, figures) include only data from the on-treatment period with the exception of baseline data which will also be summarized where appropriate (e.g. change from baseline summaries). In addition, a separate summary for death including on treatment and post treatment deaths will be provided. In particular, summary tables for adverse events (AEs) will summarize only on-treatment events, with a start date during the on-treatment period (treatment-emergent AEs).
Separate summaries will be provided for study medication related adverse events, death, serious adverse events, other significant adverse events leading to discontinuation and adverse events leading to dose adjustment.

[3] = All grades, randomized treatment period, Safety Set
[4] = Grade >=3, randomized treatment period, Safety Set
[5] = randomized treatment period, Safety Set

C[C@@H](O)[C@@H]1NC(=O)[C@H](CCCCN)NC(=O)[C@@H](Cc2c[nH]c3ccccc23)NC(=O)[C@H](Cc2ccccc2)NC(=O)[C@@H](NC(=O)[C@H](N)Cc2ccccc2)CSSC[C@@H](C(=O)N[C@H](CO)[C@@H](C)O)NC1=O [Octreotide LAR, octreotide]
17 (23.3) n (%): Worst post-baseline abnormality: Albumin (g/L)-Decrease ([1]; All grades (CTCAE v5.0)) | Worst post-baseline abnormality: Bilirubin (umol/L)-Increase ([1]; All grades (CTCAE v5.0))
12 (16.4) n (%): Worst post-baseline abnormality: Sodium (mmol/L)-Decrease ([1]; All grades (CTCAE v5.0))
1 (1.4) n (%): Worst post-baseline abnormality: Albumin (g/L)-Decrease ([1]; Grade 3/4 (CTCAE v5.0)) | Worst post-baseline abnormality: Calcium Corrected (mmol/L)-Increase ([1]; Grade 3/4 (CTCAE v5.0)) | Worst post-baseline abnormality: Creatinine (umol/L)-Increase ([1]; Grade 3/4 (CTCAE v5.0)) | Worst post-baseline abnormality: Sodium (mmol/L)-Decrease ([1]; Grade 3/4 (CTCAE v5.0)) | SAEs Related to Any Treatment [2, 3] | SAEs Related to Octreotide [2, 3] | Serious adverse event: Abdominal sepsis [2, 3] | Serious adverse event: Acute coronary syndrome [2, 3] | Serious adverse event: Acute kidney injury [2, 3] | Serious adverse event: Anaemia [2, 3] | Serious adverse event: Ascites [2, 3] | Serious adverse event: Blood bilirubin increased [2, 3] | Serious adverse event: Carcinoid heart disease [2, 3] | Serious adverse event: Carcinoid syndrome [2, 3] | Serious adverse event: Diarrhoea [2, 3] | Serious adverse event: Femur fracture [2, 3] | Serious adverse event: Gastroenteritis [2, 3] | Serious adverse event: Generalised oedema [2, 3] | Serious adverse event: Hip fracture [2, 3] | Serious adverse event: Hyperglycaemia [2, 3] | Serious adverse event: Hypertension [2, 3] | Serious adverse event: Hypoalbuminaemia [2, 3] | Serious adverse event: Intestinal obstruction [2, 3] | Serious adverse event: Jaundice [2, 3] | Serious adverse event: Lower gastrointestinal haemorrhage [2, 3] | Serious adverse event: Metabolic encephalopathy [2, 3] | Serious adverse event: Oedema peripheral [2, 3] | Serious adverse event: Pleurisy [2, 3] | Serious adverse event: Tumour lysis syndrome [2, 3] | SAEs Related to Any Treatment [2, 4] | SAEs Related to Octreotide [2, 4] | Serious adverse event: Abdominal sepsis [2, 4] | Serious adverse event: Acute kidney injury [2, 4] | Serious adverse event: Anaemia [2, 4] | Serious adverse event: Ascites [2, 4] | Serious adverse event: Blood bilirubin increased [2, 4] | Serious adverse event: Carcinoid heart disease [2, 4] | Serious adverse event: Carcinoid syndrome [2, 4] | Serious adverse event: Diarrhoea [2, 4] | Serious adverse event: Gastroenteritis [2, 4] | Serious adverse event: Generalised oedema [2, 4] | Serious adverse event: Hip fracture [2, 4] | Serious adverse event: Hyperglycaemia [2, 4] | Serious adverse event: Hypertension [2, 4] | Serious adverse event: Hypoalbuminaemia [2, 4] | Serious adverse event: Intestinal obstruction [2, 4] | Serious adverse event: Jaundice [2, 4] | Serious adverse event: Lower gastrointestinal haemorrhage [2, 4] | Serious adverse event: Metabolic encephalopathy [2, 4] | Serious adverse event: Oedema peripheral [2, 4] | Serious adverse event: Pleurisy [2, 4] | Serious adverse event: Tumour lysis syndrome [2, 4] | SAE with fatal outcome: Diarrhoea [2, 5] | SAE with fatal outcome: Tumor Lysis syndrome [2, 5]
8 (11.0) n (%): Worst post-baseline abnormality: Calcium Corrected (mmol/L)-Increase ([1]; All grades (CTCAE v5.0))
4 (5.5) n (%): Worst post-baseline abnormality: Bilirubin (umol/L)-Increase ([1]; Grade 3/4 (CTCAE v5.0))
0 (%): Incidence of SAEs: Small intestinal obstruction ([2]; most frequent SAE, summary table)
1.4%: Serious AEs, Treatment-related ([2]; randomized treatment period)
20.5%: Serious AEs ([2]; randomized treatment period)
5 (6.8) n (%): Worst post-baseline abnormality: Aspartate Aminotransferase (U/L)-Increase ([1]; Grade 3/4 (CTCAE v5.0))
0 n (%): Worst post-baseline abnormality: Sodium (mmol/L)-Increase ([1]; Grade 3/4 (CTCAE v5.0)) | Fatal SAEs Related to Any Treatment [2, 3] | Fatal SAEs Related to Octreotide [2, 3] | Serious adverse event: Abdominal pain [2, 3] | Serious adverse event: Gastrointestinal stoma complication [2, 3] | Serious adverse event: Pyrexia [2, 3] | Serious adverse event: Small intestinal obstruction [2, 3] | Fatal SAEs Related to Any Treatment [2, 4] | Fatal SAEs Related to Octreotide [2, 4] | Serious adverse event: Abdominal pain [2, 4] | Serious adverse event: Acute coronary syndrome [2, 4] | Serious adverse event: Femur fracture [2, 4] | Serious adverse event: Gastrointestinal stoma complication [2, 4] | Serious adverse event: Pyrexia [2, 4] | Serious adverse event: Small intestinal obstruction [2, 4] | SAE with fatal outcome: Blood bilirubin increased [2, 5] | SAE with fatal outcome: Dyspnoea [2, 5] | SAE with fatal outcome: Intestinal perforation [2, 5]
16 (21.9) n (%): Worst post-baseline abnormality: Potassium (mmol/L)-Increase ([1]; All grades (CTCAE v5.0))
6 (8.2) n (%): Worst post-baseline abnormality: Sodium (mmol/L)-Increase ([1]; All grades (CTCAE v5.0))
2 (2.7) n (%): Worst post-baseline abnormality: Potassium (mmol/L)-Decrease ([1]; Grade 3/4 (CTCAE v5.0)) | Fatal SAEs [2, 3] | Fatal SAEs [2, 4] | SAEs with fatal outcome [2, 5] | SAEs with fatal outcome reported in subjects with primary reason for death = Disease under Study [2, 5]
5.5%: Grade 3/4 biochemical lab abnormality: bilirubin increase [1]
40 (54.8) n (%): Worst post-baseline abnormality: Alkaline Phosphatase (U/L)-Increase ([1]; All grades (CTCAE v5.0)) | Worst post-baseline abnormality: Aspartate Aminotransferase (U/L)-Increase ([1]; All grades (CTCAE v5.0))
38 (52.1) n (%): Worst post-baseline abnormality: Alanine Aminotransferase (U/L)-Increase ([1]; All grades (CTCAE v5.0))
6.8%: Grade 3/4 biochemical lab abnormality: aspartate aminotransferase increase [1]
28.8%: Grade 3/4 biochemical lab abnormality: GGT increase [1]
10 (13.7) n (%): Worst post-baseline abnormality: Potassium (mmol/L)-Decrease ([1]; All grades (CTCAE v5.0))
3 (4.1) n (%): Worst post-baseline abnormality: Alanine Aminotransferase (U/L)-Increase ([1]; Grade 3/4 (CTCAE v5.0)) | Worst post-baseline abnormality: Alkaline Phosphatase (U/L)-Increase ([1]; Grade 3/4 (CTCAE v5.0)) | Worst post-baseline abnormality: Potassium (mmol/L)-Increase ([1]; Grade 3/4 (CTCAE v5.0))
15 (20.5) n (%): Worst post-baseline abnormality: Creatinine (umol/L)-Increase ([1]; All grades (CTCAE v5.0))
